Data from the NIST ThermoML archive (doi:10.1016/j.fluid.2006.12.016).

Details: 101.33 kPa, Liquid

CCCCCCn1cc[n+](C)c1.F[B-](F)(F)F [1-hexyl-3-methylimidazolium tetrafluoroborate]
Details	mass density [kg/m3]	viscosity [mPa·s]
288.15 K	1151.49	315.7
289.15 K	1150.78	–
290.15 K	1150.08	–
291.15 K	1149.37	–
292.15 K	1148.66	–
293.15 K	1147.96	232.8
294.15 K	1147.25	–
295.15 K	1146.56	–
296.15 K	1145.85	–
297.15 K	1145.15	–
298.15 K	1144.45	174.1
299.15 K	1143.75	–
300.15 K	1143.04	–
301.15 K	1142.34	–
302.15 K	1141.65	–
303.15 K	1140.96	132.1
304.15 K	1140.25	–
305.15 K	1139.56	–
306.15 K	1138.87	–
307.15 K	1138.16	–
308.15 K	1137.48	103
309.15 K	1136.77	–
310.15 K	1136.08	–
311.15 K	1135.39	–
312.15 K	1134.7	–
313.15 K	1134.03	81.7
314.15 K	1133.33	–
315.15 K	1132.64	–
316.15 K	1131.95	–
317.15 K	1131.28	–
318.15 K	1130.59	65.9
319.15 K	1129.9	–
320.15 K	1129.22	–
321.15 K	1128.53	–
322.15 K	1127.87	–
323.15 K	1127.17	53.9

CCCCn1cc[n+](C)c1.F[B-](F)(F)F [1-butyl-3-methylimidazolium tetrafluoroborate]
Details	mass density [kg/m3]	viscosity [mPa·s]
293.15 K	1205.89	136.3
294.15 K	1205.17	–
295.15 K	1204.46	–
296.15 K	1203.73	–
297.15 K	1203	–
298.15 K	1202.3	103.8
299.15 K	1201.57	–
300.15 K	1200.85	–
301.15 K	1200.13	–
302.15 K	1199.43	–
303.15 K	1198.71	80.6
304.15 K	1198	–
305.15 K	1197.28	–
306.15 K	1196.58	–
307.15 K	1195.85	–
308.15 K	1195.16	64
309.15 K	1194.44	–
310.15 K	1193.73	–
311.15 K	1193.02	–
312.15 K	1192.32	–
313.15 K	1191.63	51.5
314.15 K	1190.9	–
315.15 K	1190.2	–
316.15 K	1189.49	–
317.15 K	1188.78	–
318.15 K	1188.08	42.1
319.15 K	1187.36	–
320.15 K	1186.66	–
321.15 K	1185.96	–
322.15 K	1185.27	–
323.15 K	1184.55	34.9

CCCCCCCC[n+]1ccn(C)c1.F[B-](F)(F)F [1-methyl-3-octylimidazolium tetrafluoroborate]
Details	mass density [kg/m3]	viscosity [mPa·s]
288.15 K	1110.37	412.3
289.15 K	1109.66	–
290.15 K	1108.98	–
291.15 K	1108.29	–
292.15 K	1107.6	–
293.15 K	1106.92	300.9
294.15 K	1106.24	–
295.15 K	1105.55	–
296.15 K	1104.87	–
297.15 K	1104.18	–
298.15 K	1103.51	222.8
299.15 K	1102.82	–
300.15 K	1102.13	–
301.15 K	1101.45	–
302.15 K	1100.77	–
303.15 K	1100.09	168.9
304.15 K	1099.41	–
305.15 K	1098.73	–
306.15 K	1098.05	–
307.15 K	1097.35	–
308.15 K	1096.69	131.2
309.15 K	1096	–
310.15 K	1095.32	–
311.15 K	1094.64	–
312.15 K	1093.96	–
313.15 K	1093.29	102.9
314.15 K	1092.6	–
315.15 K	1091.92	–
316.15 K	1091.25	–
317.15 K	1090.57	–
318.15 K	1089.89	81.8
319.15 K	1089.23	–
320.15 K	1088.54	–
321.15 K	1087.88	–
322.15 K	1087.21	–
323.15 K	1086.51	66.7
